Data on nine molecules can be found in ChEMBL document CHEMBL1201862, “PubChem BioAssay data set” (2004).

Assay [1] addresses Induced myeloid leukemia cell differentiation protein Mcl-1 (Homo sapiens, UniProt Q07820). The assay is classed as functional.
In the next assay the target is T1, Hexokinase HKDC1 (Homo sapiens, UniProt Q2TB90).
T1 sequence (Q2TB90 whole entry): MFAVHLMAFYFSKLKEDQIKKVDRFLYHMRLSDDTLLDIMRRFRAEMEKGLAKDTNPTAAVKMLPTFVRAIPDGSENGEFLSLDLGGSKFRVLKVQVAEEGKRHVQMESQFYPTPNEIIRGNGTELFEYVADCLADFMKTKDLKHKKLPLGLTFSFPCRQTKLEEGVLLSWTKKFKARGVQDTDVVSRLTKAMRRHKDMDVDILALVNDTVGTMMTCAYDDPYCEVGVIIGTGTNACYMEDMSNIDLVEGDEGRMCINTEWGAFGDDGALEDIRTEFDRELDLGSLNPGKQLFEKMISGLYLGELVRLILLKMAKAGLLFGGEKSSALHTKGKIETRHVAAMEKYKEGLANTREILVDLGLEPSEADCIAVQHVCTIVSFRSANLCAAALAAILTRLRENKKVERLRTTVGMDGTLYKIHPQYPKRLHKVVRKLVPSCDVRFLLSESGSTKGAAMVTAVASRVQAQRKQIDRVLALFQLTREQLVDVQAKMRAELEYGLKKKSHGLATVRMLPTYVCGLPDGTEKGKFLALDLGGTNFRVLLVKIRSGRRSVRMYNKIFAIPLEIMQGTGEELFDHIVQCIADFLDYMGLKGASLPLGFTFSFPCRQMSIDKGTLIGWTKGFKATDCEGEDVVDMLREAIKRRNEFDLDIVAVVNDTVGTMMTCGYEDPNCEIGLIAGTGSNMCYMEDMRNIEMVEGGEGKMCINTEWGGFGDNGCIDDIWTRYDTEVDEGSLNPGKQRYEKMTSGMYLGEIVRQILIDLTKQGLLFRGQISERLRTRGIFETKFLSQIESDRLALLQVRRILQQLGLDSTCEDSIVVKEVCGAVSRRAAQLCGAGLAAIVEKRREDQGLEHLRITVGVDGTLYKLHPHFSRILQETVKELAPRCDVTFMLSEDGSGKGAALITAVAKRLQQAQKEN
In words: HKDC1 hexokinase inhibitors, dose response, biochemical, W721R variant (AID 504729). The assay is classed as functional.

The target of a further assay is Cytochrome P450 3A4 (Homo sapiens, UniProt P08684). The note with it: Potency.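 Also: confirmatory qHTS run detecting inhibitors and substrates of CYP3A4.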
Chain of Cytochrome P450 3A4 (P08684 whole entry): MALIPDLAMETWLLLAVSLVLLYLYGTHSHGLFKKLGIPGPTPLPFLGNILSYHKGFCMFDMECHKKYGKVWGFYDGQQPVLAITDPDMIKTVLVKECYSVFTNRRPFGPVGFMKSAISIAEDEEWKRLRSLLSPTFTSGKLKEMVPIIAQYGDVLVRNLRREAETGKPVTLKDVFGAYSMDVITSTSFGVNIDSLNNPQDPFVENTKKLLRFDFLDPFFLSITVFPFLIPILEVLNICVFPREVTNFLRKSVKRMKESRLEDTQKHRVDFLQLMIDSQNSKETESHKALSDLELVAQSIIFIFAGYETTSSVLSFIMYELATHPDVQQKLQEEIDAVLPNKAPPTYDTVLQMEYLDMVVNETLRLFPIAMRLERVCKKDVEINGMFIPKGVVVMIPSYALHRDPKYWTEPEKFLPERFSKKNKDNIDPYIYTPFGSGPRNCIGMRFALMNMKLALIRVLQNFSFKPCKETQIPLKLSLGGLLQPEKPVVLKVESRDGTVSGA
For a further assay, the target named is Cytochrome P450 2D6 (Homo sapiens, UniProt P10635). In words: qHTS Assay for Inhibitors and Substrates of Cytochrome P450 2D6. [Related pubchem assays: 410 ]. Type of assay: ADME. Conditions: read-out: Potency. (In general: Quantitative high-throughput screening tests each substance at several concentrations.)
Another assay has as its system H9c2. In words: cells. The assay is classed as functional, cell-based. The note with it: Rattus norvegicus, H9c2, Myocardium.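 Also: confirmatory concentration-response retest of ultra-high-throughput screening hits for modulation of myocardial damage; cell death induced by hydrogen peroxide oxidative stress; compound pretreatment for 60 min then peroxide exposure for 2 h; potency is for protecting the cells against peroxide damage rather than for killing them.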
Assay [2] concerns the target T2, Heat shock factor protein 1 (Mus musculus, UniProt P38532).
T2 sequence (P38532 whole entry): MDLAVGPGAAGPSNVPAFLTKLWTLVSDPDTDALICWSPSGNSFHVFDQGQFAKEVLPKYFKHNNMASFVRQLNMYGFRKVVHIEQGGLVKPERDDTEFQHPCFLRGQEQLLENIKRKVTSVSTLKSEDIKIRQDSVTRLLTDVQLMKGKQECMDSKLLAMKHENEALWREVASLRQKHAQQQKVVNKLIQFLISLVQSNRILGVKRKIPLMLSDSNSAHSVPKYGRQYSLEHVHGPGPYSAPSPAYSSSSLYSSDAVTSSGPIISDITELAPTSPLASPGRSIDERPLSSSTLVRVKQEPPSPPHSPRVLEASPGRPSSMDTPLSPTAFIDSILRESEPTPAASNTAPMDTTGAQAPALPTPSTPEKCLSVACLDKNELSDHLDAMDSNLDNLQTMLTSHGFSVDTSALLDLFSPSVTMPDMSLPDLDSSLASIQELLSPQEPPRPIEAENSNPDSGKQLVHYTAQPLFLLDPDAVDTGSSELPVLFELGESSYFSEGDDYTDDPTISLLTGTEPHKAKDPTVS
In words: inhibition of MG132-induced HSE-luciferase signal, confirmation, cell-based, NIH3T3, luminescence, dose retest (AID 2382).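 Also: NIH3T3 fibroblasts with HSF1-driven luciferase reporter stressed by proteasome inhibitor MG132; luminescence from HSF1-driven luciferase expression after 8 hours of MG132 stress.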 The assay is classed as functional.

Assay [3] concerns the target T3, Estrogen receptor beta (Homo sapiens, UniProt Q92731). Description: ERβ–SRC-3 coactivator interaction inhibitors, confirmation, orthogonal assay, biochemical, ELISA, streptavidin-HRP readout (AID 1060). Background: An ELISA detects its analyte on a solid surface through an enzyme-linked reagent.
Assay [4] concerns the target Ras and Rab interactor 1/Tyrosine-protein kinase ABL1 (Homo sapiens, UniProt P00519+Q13671). Type of assay: functional.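 Also: biochemical TR-FRET dose-response test measuring inhibition of binding between Rin1 and Abl proteins.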
The target in a further assay is T4, Bcl-2-like protein 10 (Homo sapiens, UniProt Q9HD36).
T4 sequence (Q9HD36 whole entry): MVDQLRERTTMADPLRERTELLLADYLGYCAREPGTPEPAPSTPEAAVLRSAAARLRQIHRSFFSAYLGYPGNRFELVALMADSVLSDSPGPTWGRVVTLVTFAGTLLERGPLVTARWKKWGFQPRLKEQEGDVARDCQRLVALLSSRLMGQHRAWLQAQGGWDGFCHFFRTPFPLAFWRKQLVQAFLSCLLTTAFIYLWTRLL
Description: displacers of TR3 peptide from Bcl-B, primary screen, selectivity assay for Bfl-1 inhibitor project, biochemical, fluorescence polarization, FITC-TR3 peptide (AID 748).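 Also: fluorescence polarization from a fluorescein-labelled TR3 peptide binding purified Bcl-B.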 Background: Polarisation of emitted light reports the rotation of a fluorescent probe.

Assay [5] has as its target T3, Estrogen receptor beta.
In assay [6] the target is T5, Carboxy-terminal domain RNA polymerase II polypeptide A small phosphatase 1 (Homo sapiens, UniProt Q9GZU7).
T5 sequence (Q9GZU7 whole entry): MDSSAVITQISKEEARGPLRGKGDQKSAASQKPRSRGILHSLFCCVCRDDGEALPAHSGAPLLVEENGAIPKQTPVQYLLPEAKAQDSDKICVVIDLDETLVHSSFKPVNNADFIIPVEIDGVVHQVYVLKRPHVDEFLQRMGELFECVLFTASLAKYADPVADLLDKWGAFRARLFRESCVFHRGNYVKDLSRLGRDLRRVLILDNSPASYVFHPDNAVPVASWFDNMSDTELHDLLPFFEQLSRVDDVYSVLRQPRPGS
Description: inhibitors of CTDSP1, concentration-response testing, biochemical assay, absorbance-based, actives from ultra-high-throughput screening (AID 540297). Type of assay: functional.

Assay [7] concerns the target T6, Nucleotide-binding oligomerization domain-containing protein 1 (Homo sapiens, UniProt Q9Y239).
T6 sequence (Q9Y239 whole entry): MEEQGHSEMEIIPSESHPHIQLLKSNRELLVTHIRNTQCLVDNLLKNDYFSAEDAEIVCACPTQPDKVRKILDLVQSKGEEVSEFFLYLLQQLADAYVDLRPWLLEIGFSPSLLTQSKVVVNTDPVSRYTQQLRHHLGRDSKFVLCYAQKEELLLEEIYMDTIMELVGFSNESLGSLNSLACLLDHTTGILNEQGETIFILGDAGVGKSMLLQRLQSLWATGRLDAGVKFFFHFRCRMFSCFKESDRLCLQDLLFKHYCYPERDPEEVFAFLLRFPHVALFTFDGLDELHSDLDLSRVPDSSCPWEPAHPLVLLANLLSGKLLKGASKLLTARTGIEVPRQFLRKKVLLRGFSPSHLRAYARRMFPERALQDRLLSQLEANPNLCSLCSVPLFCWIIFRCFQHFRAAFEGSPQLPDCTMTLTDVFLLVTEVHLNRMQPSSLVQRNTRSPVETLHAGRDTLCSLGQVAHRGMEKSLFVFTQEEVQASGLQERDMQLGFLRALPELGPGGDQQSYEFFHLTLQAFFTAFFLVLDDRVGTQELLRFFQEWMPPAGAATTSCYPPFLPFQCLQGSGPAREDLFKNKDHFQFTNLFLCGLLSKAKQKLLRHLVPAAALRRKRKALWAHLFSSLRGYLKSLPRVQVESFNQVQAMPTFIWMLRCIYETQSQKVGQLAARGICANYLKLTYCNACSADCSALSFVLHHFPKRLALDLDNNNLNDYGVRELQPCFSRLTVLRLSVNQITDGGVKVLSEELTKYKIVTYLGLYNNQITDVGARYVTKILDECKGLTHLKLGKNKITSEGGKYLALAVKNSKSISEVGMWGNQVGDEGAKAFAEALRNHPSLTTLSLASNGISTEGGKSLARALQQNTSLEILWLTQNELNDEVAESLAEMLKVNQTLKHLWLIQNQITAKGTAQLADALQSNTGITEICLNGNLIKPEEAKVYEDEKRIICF
Description: NOD1 signaling inhibitors, SAR follow-up, revised (AID 2333). The assay is classed as functional.

The subject of assay [8] is HEK293. In words: cells. Conditions: Homo sapiens.
In another assay the target is Tumor necrosis factor (Homo sapiens, UniProt P01375). Description: TNFa-triggered NF-kB activation inhibitors, SAR follow-up, cell-based, revised (AID 2337). The assay is classed as functional.
Chain of Tumor necrosis factor (P01375 whole entry): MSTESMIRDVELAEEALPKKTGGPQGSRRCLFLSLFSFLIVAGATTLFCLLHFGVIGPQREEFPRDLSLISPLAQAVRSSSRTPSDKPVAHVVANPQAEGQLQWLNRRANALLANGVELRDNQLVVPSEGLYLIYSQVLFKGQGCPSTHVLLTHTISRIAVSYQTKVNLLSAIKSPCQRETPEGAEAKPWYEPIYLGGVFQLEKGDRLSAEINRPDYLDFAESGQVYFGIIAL
For assay [9], the system named is HEK293. Description: cells. Type of assay: functional, cell-based. The note with it: Homo sapiens.
Assay [10] relates to HEK293. Description: NOD1 signaling inhibitors, primary screen, cell-based, luminescence, uHTS (AID 1578). The assay is classed as functional. The note with it: Homo sapiens.
For assay [11], the target named is T7, Nucleotide-binding oligomerization domain-containing protein 2 (Homo sapiens, UniProt Q9HC29). In words: NOD2 signaling inhibitors, cell-based, luminescence, uHTS, HEK293 (AID 1566). Type of assay: functional.
T7 sequence (Q9HC29 whole entry, the tested form may be a part): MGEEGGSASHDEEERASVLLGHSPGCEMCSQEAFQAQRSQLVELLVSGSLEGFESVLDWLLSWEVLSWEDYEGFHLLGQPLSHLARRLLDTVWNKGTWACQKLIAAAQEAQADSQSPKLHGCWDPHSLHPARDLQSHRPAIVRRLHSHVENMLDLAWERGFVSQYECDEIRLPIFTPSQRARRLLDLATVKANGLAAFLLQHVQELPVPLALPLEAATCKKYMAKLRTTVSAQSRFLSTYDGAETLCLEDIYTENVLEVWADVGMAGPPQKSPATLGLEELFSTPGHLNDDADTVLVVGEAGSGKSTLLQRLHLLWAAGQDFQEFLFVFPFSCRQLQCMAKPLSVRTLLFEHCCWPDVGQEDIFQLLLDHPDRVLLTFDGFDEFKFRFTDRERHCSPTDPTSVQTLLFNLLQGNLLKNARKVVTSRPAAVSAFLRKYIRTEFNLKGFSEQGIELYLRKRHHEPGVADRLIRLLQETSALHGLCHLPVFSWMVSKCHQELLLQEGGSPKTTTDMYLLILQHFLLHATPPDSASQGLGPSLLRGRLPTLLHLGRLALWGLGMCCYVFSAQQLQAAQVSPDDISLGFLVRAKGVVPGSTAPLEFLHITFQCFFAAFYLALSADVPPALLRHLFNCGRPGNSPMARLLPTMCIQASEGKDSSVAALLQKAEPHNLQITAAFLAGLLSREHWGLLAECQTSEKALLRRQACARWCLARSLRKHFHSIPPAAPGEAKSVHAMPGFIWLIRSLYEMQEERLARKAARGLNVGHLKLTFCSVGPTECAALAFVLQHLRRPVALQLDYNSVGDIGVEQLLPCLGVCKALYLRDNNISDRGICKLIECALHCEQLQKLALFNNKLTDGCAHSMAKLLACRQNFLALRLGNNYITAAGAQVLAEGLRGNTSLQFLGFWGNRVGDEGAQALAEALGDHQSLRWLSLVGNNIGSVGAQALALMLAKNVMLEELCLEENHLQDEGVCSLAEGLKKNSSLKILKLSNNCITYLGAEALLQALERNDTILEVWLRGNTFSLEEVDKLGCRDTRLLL
The target in the next assay is Nonstructural protein 1 (Influenza A virus, UniProt Q194T2). The assay is classed as functional, Influenza A virus (A/California/07/2009(H1N1)).
Chain of Nonstructural protein 1 (Q194T2 whole entry): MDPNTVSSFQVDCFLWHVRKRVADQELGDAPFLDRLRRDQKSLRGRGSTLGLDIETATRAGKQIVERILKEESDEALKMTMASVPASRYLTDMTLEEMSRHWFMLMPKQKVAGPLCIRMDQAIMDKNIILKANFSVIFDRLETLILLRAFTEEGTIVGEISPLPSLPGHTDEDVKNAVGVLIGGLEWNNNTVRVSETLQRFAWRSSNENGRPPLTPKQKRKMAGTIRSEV
Assay [12] relates to HEK293. In words: cells. Type of assay: functional, cell-based. Conditions: Homo sapiens. This is another data set of the same source.
Assay [13] concerns HEK293. In words: cells. Type of assay: functional, cell-based. Conditions: Homo sapiens. This is another data set of the same source.
Assay [14] concerns the target T7, Nucleotide-binding oligomerization domain-containing protein 2. In words: PubChem AID 2334. The assay is classed as functional.
Assay [15] concerns HEK293. Description: NOD2 signaling inhibitors in MDP-stimulated cells, cell-based, uHTS, luminescence (AID 2001). The assay is classed as functional. The note with it: Homo sapiens.

Molecules are shown by their SMILES. Activity calls are given as the source filed them.

T3 sequence (Q92731 whole entry): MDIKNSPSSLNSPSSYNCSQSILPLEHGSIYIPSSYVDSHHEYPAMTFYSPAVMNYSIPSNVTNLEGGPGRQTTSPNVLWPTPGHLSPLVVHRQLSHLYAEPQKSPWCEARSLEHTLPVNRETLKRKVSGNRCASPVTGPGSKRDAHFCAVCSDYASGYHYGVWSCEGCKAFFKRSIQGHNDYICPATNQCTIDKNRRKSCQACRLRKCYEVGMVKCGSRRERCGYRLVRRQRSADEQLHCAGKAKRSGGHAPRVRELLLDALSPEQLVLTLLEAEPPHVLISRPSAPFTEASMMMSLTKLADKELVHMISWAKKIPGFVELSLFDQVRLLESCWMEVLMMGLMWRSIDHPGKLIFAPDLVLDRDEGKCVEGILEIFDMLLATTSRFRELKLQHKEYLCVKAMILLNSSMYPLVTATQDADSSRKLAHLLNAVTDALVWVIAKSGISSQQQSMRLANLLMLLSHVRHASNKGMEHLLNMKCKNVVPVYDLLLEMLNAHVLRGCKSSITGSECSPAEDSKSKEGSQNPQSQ
Chain of Induced myeloid leukemia cell differentiation protein Mcl-1 (Q07820 whole entry): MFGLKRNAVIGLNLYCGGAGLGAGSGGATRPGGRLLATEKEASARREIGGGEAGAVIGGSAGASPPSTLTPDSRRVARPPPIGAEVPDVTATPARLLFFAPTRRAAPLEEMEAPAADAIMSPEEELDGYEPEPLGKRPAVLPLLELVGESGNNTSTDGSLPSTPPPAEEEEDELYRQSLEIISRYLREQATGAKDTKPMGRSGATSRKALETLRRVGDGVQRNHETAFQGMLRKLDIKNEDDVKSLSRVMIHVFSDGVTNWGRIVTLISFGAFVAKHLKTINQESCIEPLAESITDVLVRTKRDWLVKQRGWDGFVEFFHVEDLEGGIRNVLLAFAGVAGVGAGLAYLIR
Chain of Ras and Rab interactor 1/Tyrosine-protein kinase ABL1 (P00519 whole entry): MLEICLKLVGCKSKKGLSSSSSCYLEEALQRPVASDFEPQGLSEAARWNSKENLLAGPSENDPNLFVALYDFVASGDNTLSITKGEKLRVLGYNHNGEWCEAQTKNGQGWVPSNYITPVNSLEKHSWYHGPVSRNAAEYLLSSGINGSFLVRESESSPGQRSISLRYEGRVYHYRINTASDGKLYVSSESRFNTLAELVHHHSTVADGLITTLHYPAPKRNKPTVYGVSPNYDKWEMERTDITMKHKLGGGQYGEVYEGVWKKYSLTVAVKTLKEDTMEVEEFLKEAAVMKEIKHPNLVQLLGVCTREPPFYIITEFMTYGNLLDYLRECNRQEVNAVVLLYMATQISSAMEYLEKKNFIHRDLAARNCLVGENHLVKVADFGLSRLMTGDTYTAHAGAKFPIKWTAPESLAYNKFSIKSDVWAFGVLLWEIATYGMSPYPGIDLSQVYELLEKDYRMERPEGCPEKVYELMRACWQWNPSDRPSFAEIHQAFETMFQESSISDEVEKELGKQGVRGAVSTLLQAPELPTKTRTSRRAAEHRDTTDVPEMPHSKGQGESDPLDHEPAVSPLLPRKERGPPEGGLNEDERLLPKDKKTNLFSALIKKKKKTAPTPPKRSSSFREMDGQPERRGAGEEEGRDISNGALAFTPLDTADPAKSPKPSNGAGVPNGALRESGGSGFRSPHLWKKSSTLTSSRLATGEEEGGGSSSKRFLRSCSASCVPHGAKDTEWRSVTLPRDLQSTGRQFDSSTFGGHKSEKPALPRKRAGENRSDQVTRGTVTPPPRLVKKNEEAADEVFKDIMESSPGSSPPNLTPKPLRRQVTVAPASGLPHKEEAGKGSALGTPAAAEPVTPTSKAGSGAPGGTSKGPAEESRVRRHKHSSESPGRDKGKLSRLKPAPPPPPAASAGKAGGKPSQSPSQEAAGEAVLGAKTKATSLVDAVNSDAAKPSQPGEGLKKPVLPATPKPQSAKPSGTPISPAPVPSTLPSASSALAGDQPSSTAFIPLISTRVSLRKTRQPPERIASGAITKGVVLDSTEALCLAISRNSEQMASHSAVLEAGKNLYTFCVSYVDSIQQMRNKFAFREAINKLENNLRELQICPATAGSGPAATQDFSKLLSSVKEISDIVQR
Chain of Ras and Rab interactor 1/Tyrosine-protein kinase ABL1 (Q13671 whole entry): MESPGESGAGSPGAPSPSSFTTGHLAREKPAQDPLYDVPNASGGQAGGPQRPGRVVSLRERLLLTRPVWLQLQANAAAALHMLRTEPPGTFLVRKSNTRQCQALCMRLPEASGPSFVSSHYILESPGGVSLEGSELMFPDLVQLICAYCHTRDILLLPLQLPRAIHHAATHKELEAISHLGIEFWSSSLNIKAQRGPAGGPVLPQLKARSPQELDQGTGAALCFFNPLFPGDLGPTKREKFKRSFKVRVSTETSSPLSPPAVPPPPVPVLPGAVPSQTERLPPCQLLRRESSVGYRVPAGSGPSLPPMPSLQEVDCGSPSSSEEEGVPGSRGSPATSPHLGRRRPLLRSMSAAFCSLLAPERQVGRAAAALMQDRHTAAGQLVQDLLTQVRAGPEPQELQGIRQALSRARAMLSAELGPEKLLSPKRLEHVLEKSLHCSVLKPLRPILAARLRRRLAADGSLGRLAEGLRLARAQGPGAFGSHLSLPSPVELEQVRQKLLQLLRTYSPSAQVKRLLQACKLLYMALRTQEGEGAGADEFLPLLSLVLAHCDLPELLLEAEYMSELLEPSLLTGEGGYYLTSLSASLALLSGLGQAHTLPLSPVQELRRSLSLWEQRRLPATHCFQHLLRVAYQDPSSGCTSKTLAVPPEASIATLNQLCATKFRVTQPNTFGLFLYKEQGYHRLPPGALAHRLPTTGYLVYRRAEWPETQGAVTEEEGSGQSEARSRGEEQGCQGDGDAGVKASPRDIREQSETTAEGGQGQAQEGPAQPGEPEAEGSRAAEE

The term IC50 denotes the concentration at which inhibition is half-maximal. `CCn1cc(C(=O)NCc2ccc3c(c2)OCO3)c2cc(OC)c(OC)cc2c1=O`: the results for the IC50 (in assay [1]; on Hexokinase HKDC1) were 7.31 µM (not active) and 17.2 µM (active), respectively.

Regarding `CC(C)CN1CCc2nc(-c3ccccc3)c3c(c2C1)COC(C)C3` (stereo not given), the AC50 at Cytochrome P450 3A4 and on Cytochrome P450 2D6 was 3.16 µM (inconclusive) in each case.

What is called EC50 is the concentration giving half of the maximal effect. For the molecule `CCOc1ccccc1Nc1nnc(SCc2nnc(-c3cc(OC)c(OC)c(OC)c3)o2)s1`, the figures for the IC50 in the assay with H9c2 and on Hexokinase HKDC1 were > 79 µM (inactive) and 18.8 µM (active), respectively. Besides, the EC50 in assay [2] is 21.7 µM (active).

In the case of `Cc1ccc(-n2c(SCc3cc(=O)n4ccsc4n3)nnc2-c2cccnc2)c(C)c1`, the IC50 at Estrogen receptor beta [3] is 0.721 µM (not active); in assay [4], 19.6 µM (inactive); at Bcl-2-like protein 10, > 100 µM (inactive); against Estrogen receptor beta [5], > 50 µM (not active).

Regarding `O=C(c1cc2c(s1)CCC2)N1CCN(c2ccccc2)CC1`, the IC50 at Estrogen receptor beta [3] was > 50 µM (not active); on Bcl-2-like protein 10, 36.3 µM (active); on Estrogen receptor beta [5], 3.87 µM (active); in [6] it was 22.4 µM (active).

`N#CC(c1ccccc1)c1ccc2c(C(F)(F)F)cc(C(F)(F)F)nc2n1` (stereo not given): the IC50 in assay [7] is 3.71 µM (active); in the assay with HEK293 [8] it was > 20 µM (inactive); on Tumor necrosis factor, 5.88 µM (active); in the assay on HEK293 [9], 15.4 µM (active); at Nonstructural protein 1 it was 21.3 µM (active); in the assay on HEK293 [12], > 20 µM (inactive). The figures for the IC50 (in the assay with HEK293 [13]; in assay [14]; with HEK293 [15]) were > 20 µM (inactive), 3.99 µM (active) and > 20 µM (inactive), respectively. Also, the EC50 with HEK293 [10] was 4.36 µM (active); in [11] it was 13.4 µM (active).

As for `Cc1cc(C(=O)NC2CCCc3c2cnn3-c2ccccc2F)n(C)n1` (stereo not given), the IC50 was 0.146 µM (active) in assay [7], > 20 µM (inactive) with HEK293 [8], > 20 µM (inactive) on Tumor necrosis factor and > 20 µM (inactive) in [14].

Consider `O=C(Nc1ccc(Cl)cc1)c1ccc(CCN2CCc3ccccc3C2)cc1`, for which the IC50 (in assay [7]; in the assay with HEK293 [8]; at Tumor necrosis factor; in assay [14]) was > 20 µM (inactive) each time.

Take `COc1ccc2cc(CCNC(=O)c3ccc(S(=O)(=O)N4CCCC4)cc3)c(O)nc2c1`: the IC50 at Hexokinase HKDC1 is 7.58 µM (active).
